{"source": "patent US20040038888A1", "about": "(priority 2002, published 2004)", "key": {"[1]": {"system": "mouse adult neural stem cells", "test": "Intracellular ATP assay, adult mouse NSC, non-adherent culture", "type": "cell-based", "conditions": "for effect of inhibitor on the PACAP increase of intracellular ATP: co-incubated with PACAP 100 nM, 4 days, 10 uM H89, 1 uM U73122, 1 uM Gö6976", "description": "The anterior lateral wall of the lateral ventricle of 5-6 week old mice was enzymatically dissociated in 0.8 mg/ml hyaluronidase and 0.5 mg/ml trypsin in DMEM containing 4.5 mg/ml glucose and 80 units/ml DNase at 37° C. for 20 min. The cells were gently triturated and mixed with three volumes of Neurosphere medium (DMEM/F12, B27 supplement, 12.5 mM HEPES pH7.4) containing 20 ng/ml EGF (unless otherwise stated), 100 units/ml penicillin and 100μg/ml streptomycin. After passing through a 70 μm strainer, the cells were pelleted at 160×g for 5 min. The supernatant was subsequently removed and the cells resuspended in Neurosphere medium supplemented as above, plated out in culture dishes and incubated at 37° C. Neurospheres were ready to be split approximately 7 days after plating.\nTo split neurosphere cultures, neurospheres were collected by centrifugation at 160×g for 5 min. The neurospheres were resuspended in 0.5 ml Trypsin/EDTA in HBSS (1×), incubated at 37° C. for 2 min and triturated gently to aid dissociation. Following a further 3 min incubation at 37° C. and trituration, 3 volumes of ice cold NSPH-media-EGF were added to stop further trypsin activity. The cells were pelleted at 220×g for 4 min, resuspended in fresh Neurosphere medium supplemented with 20 ng/ml EGF and 1 nM bFGF plated out and incubated at 37° C.\nMouse neurospheres, cultured as described above, from passage 2, were seeded in DMEM/F12 supplemented with B27 into a 96-well plate as single cells (10000 cells/well) to the substances to be measured were added at the concentrations indicated. After 3 days incubation, intracellular ATP was measured using the ATP-SL kit from BioThema, Sweden, according to the manufacturer's instructions. PACAP and VIP were purchased from Bachem. Maxadilan was a kind gift from Richard G Titus, Dept Microbiology, Immunology and Pathology, College of Veterinary Medicine and Biological Sciences, Colorado State University.\nIn experiments where signalling pathways were examined, cells were seeded as single cells as mentioned above. PACAP, 100 nM, was co incubated with 10 uM PKA inhibitor H89 (Alexis-Biochemicals) or 1 uM PLC inhibitor U73122 (Alexis-Biochemicals) or 1 uM of the PKC inhibitor Gö6976 (Sigma-Aldrich). Cells were incubated for 4 days before measurements of ATP.\nIn the experiment analysing the combinatory effect of PACAP and EGF, PACAP at 100 nM was co-incubated with 3 nM EGF for 3 days."}, "AP-1": {"system": "AP-1", "test": "AP-1 transcription factor reporter assay", "type": "cell-based, mouse", "conditions": "PD89059 10 μM with PACAP 100 nM", "description": "Vectors: Vector DNA containing reporter elements for AP-1 and empty cloning vector (pTAL), with a luciferace reporter were purchased from Promega. The vectors were propagated in E. coli strain JM-109 (Promega) and purified with Qiagens maxi-prep Kit (Qiagen). The concentration was diluted to approximately 1 mg/ml per vector.\nTransfection: Transient transfection was performed by seeding cells as above in suspension neurosphere cell culture and adherent neurosphere cell culture (1 to 3 day incubation) using 30,000 single cells/well. Each well was transiently transfected with […] plasmid, 0.6 μg Nupherin-neuron (Biomol) and 0,6 μl of Fugene-6 (Roche). Plasmid and Nupherin was mixed and diluted in DMEM/F12 to a total volume of 50 μl/well, and were incubated for 15 minutes prior to mixing with Fugene-6 that were diluted in DMEM/F12 to a total volume of 50 μl/well. The mix of plasmid and Nupherin and Fugene-6 were incubated for 20 min. The volume was adjusted to 100 μl prior to addition of 100 μl/well of transfection reagent.\nAssay: The following day the transiently transfected cells were applied with PACAP (Bachem) to final concentration of 100 nM/well, in the presence or absence of MEK inhibitor, […] (Sigma-Aldrich). Luciferace activity was analysed with steady glow (Promega) according to the instructions of the manufacturer. Cells were analysed 20 hours after induction with PACAP."}, "NSC from LVW": {"system": "NSC from LVW", "test": "Culture of NSC for cell counting", "type": "cell-based, mouse", "conditions": "PACAP 100 nM, VEGF 1 nM, in place of EGF, 7 days; VEGF relative to PACAP treated NSC", "description": "Anterior lateral ventricle wall was dissected and the cells treated as stated above, however, in place of EGF, the medium was supplemented either with PACAP (100 nM), VEGF (1 nM) or a combination of both at the stated concentrations. The cell suspension was plated into wells of a 24 well plate. The medium was further supplemented with PACAP and/or VEGF every 2 days. After 7 days in culture, the NSC washed in phosphate buffered saline and dissociated with trypsin/EDTA. Cells numbers per well were counted using a Bürker chamber. VEGF was purchased from R&D Systems."}}, "note": "Ends that are not written are not given here."}
{"compound": "Cn1c2ccccc2c2c3c(c4c5ccccc5n(CCC#N)c4c21)CNC3=O", "note": "[Gö6976, reference compound]", "values": [{"measurement": "effect of inhibitor on the PACAP increase of intracellular ATP", "setting": "[1]", "value": "entirely negate the effect of PACAP"}]}
{"compound": "O=S(=O)(NCCNC/C=C/c1ccc(Br)cc1)c1cccc2cnccc12", "note": "[H89, reference compound]", "values": [{"measurement": "effect of inhibitor on the PACAP increase of intracellular ATP", "setting": "[1]", "value": "unaltered"}]}
{"compound": "COc1cccc(-c2cc(=O)c3ccccc3o2)c1N", "note": "[PD89059, reference compound]", "values": [{"measurement": "effect of MEK inhibitor on the PACAP induction of AP-1", "setting": "AP-1", "value": "inhibited"}]}
{"compound": "COc1ccc2c(c1)CC[C@@H]1[C@@H]2CC[C@]2(C)[C@@H](NCCCCCCN3C(=O)C=CC3=O)CC[C@@H]12", "note": "[U73122, reference compound]", "values": [{"measurement": "effect of inhibitor on the PACAP increase of intracellular ATP", "setting": "[1]", "value": "entirely negate the effect of PACAP"}]}
{"compound": "EGF: mitogen, growth factor for cell cultures from BD Biosciences", "values": [{"measurement": "intracellular ATP levels, and hence NSC number", "setting": "[1]; PACAP 100 nM, EGF 3 nM, alone or combined, 3 days", "value": "increased intracellular ATP levels"}]}
{"compound": "Vasoactive intestinal peptide (HSDAVFTDNYTRLRKQMAVKKYLNSILN; ends and bridges not checked; UniProt P01282 125-152, looked up) [VIP, 28-amino acid peptide]", "values": [{"measurement": "intracellular ATP, and hence cell number", "setting": "[1]; VIP at 1 μM, non-adherent conditions, 3 days, relative to control", "value": "statistically significant increase in intracellular ATP"}]}
{"compound": "vascular endothelial growth factor [VEGF]", "values": [{"measurement": "cell number", "setting": "NSC from LVW", "value": "significant increase in cell number"}]}
